Measurements: US10125182B2, “Peptides hormone analogues derivable from preproglucagon” (IMPERIAL INNOVATIONS LIMITED, priority 2014, dated 2018)
Ends that are not written are not given here.

Experiments:
Format in all cases: in vivo
[1] = Mice feeding studies: cumulative food intake after subcutaneous administration; conditions: mice fasted 16 h, over 48 hours
Procedure: Male C57BL/6 mice (Harlan) or male Wistar rats (Charles River Ltd, Margate, UK) were used for all animal experiments.
Mice were individually housed in IVC cages. Animals were randomised into treatment groups, with stratification by body weight. Mice were fasted overnight (16 hrs) prior to peptide or vehicle administration. All peptide solutions were prepared freshly, immediately prior to administration. The vehicle used for all studies was 5% v/v water and 95% v/v sodium chloride (0.9% w/v). Peptide and vehicle were administered by subcutaneous injection, with dosage corrected for bodyweight. The injection volume was […]. […] Food intake was measured at 24 and 48 hours post injection. All statistics are calculated using a one-way ANOVA with Dunnett's post-test or one-way ANOVA with Bonferroni post-test.
Peptide hormone analogues of the invention (G1698 [SEQ ID NO 1], 500 nmol/kg dosage, reconstituted in saline, and G1718 [SEQ ID NO 6], 200 nmol/kg dosage, reconstituted in saline), comparator compounds (G1697, 500 nmol/kg dosage, reconstituted in saline, and G1717, 200 nmol/kg dosage, reconstituted in saline), or saline (vehicle control group) were administered subcutaneously to mice (group size 4-6 animals). […] Food intake (in grams) was measured at time intervals over 48 hours.

[2] = Mice feeding studies: body weight increase over 7 days; conditions: 200 nmol/kg subcutaneous in saline, compared with comparator having only His30-His31-His32 (G1721 or G1779; FIGS. 4, 5)
[3] = Rat pharmacokinetic studies: plasma concentration after subcutaneous injection with ZnCl2 (radioimmunoassay); conditions: 4 rats, 2 mg of each compound in 20 μl aqueous ZnCl2 at 1:1 molar ratio, 3 days (FIG. 7)
Procedure: Male C57BL/6 mice (Harlan) or male Wistar rats (Charles River Ltd, Margate, UK) were used for all animal experiments. The pharmacokinetics of a peptide hormone analogue of the invention in rat was evaluated over 7 days. 4 rats were injected subcutaneously with the peptide hormone analogue G2051 [SEQ ID NO 197]. Each injection was of […] total volume/rat containing 2 mg peptide and 1 zinc ion (as ZnCl2) per peptide molecule. Blood was collected at the indicated time points, and the concentration of the peptide hormone analogue was determined. Peptide levels were assessed by/using radioimmunoassay using R4 exendin-4 antibody. […] 4 rats were injected subcutaneously with the peptide hormone analogue G2051 [SEQ ID NO 197]. Each injection was of 20 μl total volume/rat containing 2 mg peptide and 1 zinc ion (as ZnCl2) per peptide molecule. Blood was collected at the indicated time points, and the concentration of the comparator compound was determined. Peptide levels were assessed by/using radioimmunoassay using R4 exendin-4 antibody.

| Substance | initial increase or spike in plasma concentration level [3] | also measured |
| --- | --- | --- |
| G1698: peptide hormone analogue of the invention; C-terminal extension His30-His31-His32-His33; full sequence only in FIG. 1 (HSQGTFTSDYSKYLDERRAHEFIEWLLNGHHHH; hormone analogue) | – | reduction of cumulative food intake relative to saline control ([1]; 500 nmol/kg subcutaneous in saline, compared with comparator G1697 (FIG. 2)): more potent and more sustained reduction |
| G1718: peptide hormone analogue of the invention; C-terminal extension His30-His31-His32-His33; full sequence only in FIG. 1 (HSQGTFTSDYSHYLDQRRAHEFIQWLLNGHHHH; hormone analogue) | – | reduction of cumulative food intake relative to saline control ([1]; 200 nmol/kg subcutaneous in saline, compared with comparator G1717 (FIG. 3)): more potent and more sustained reduction |
| G1722: peptide hormone analogue of the invention; C-terminal extension His30-His31-His32-His33; full sequence only in FIG. 1 (HSQGTFTSDYSHYLDSKRAHEFIQWLLNGHHHH; hormone analogue) | – | reduction of body weight increase relative to saline control [2]: more potent and more sustained reduction |
| G1781: peptide hormone analogue of the invention; full sequence only in FIG. 1 (HSQGTFTSDYSKYLDERRAHEFIEWLLNGGHHHH; hormone analogue) | – | reduction of body weight increase relative to saline control [2]: more potent and more sustained reduction |
| HSQGTFTSDYSKYLDHRRAKDFVQWLMNT-NH2 [G94] | initial increase or “spike” in plasma concentration level is observed | – |
| HSQGTFTSDYSKYLDSKKAQEFVEWLMNT [G202] | initial increase or “spike” in plasma concentration level is observed | – |
| HSQGTFTSDYSKYLDSKKAQEFVQWLLNT [G162] | initial increase or “spike” in plasma concentration level is observed | – |
| HSQGTFTSDYSKYLDSKKAQEFVQWLMNT-NH2 [G200] | initial increase or “spike” in plasma concentration level is observed | – |
